# Measurements from US8173360B2, “Cell death inhibitor” (Takeda Pharmaceutical Company Limited, priority 2002, dated 2012).
# Assays:
# [1] = tested on: Normal human umbilical vein endothelial cells; test: Inhibitory activity against serum depletion-induced cell death of vascular smooth muscle; assay type: cell-based; settings: serum-free MCDB131 medium, 3 days, WST-8
# [2] = tested on: primary cardiomyocytes derived from rat neonates; test: Inhibitory activity against myocardial cell death induced by doxorubicin; assay type: cell-based; settings: doxorubicin 200 μM, 18 hours; sample added 3 hours before
# Procedure: Medium 199 and a sample to be tested were added thereto, followed by incubation for 3 hours. After the incubation, doxorubicin (DOX: final concentration of 200 μM) was added to the mixture, which was incubated for further 18 hours to induce cell death. Subsequently, fetal cow serum was added thereto to reach 10%. […] Thus, the myocardial cell death inhibitory activity was examined.
# [3] = tested on: primary cardiomyocytes derived from rat neonates; test: Inhibition of serum depletion-induced myocardial cell death (WST-8 viable cell count); assay type: cell-based
# From the text: Neonates (within one day after birth) were obtained from pregnant Wistar rats purchased from Charles River Japan, Inc. and anesthetized with ether. After sterilization with 70% ethanol, the heart was removed with forceps. After washing with phosphate buffered saline (manufactured by Takara Co., Ltd., T900), the heart removed was minced with surgical scissors. The pieces of tissue were washed 4 or 5 times with phosphate buffered saline to remove most of non-cardiomyocytes derived from blood. To the pieces of tissue corresponding to 10 neonates, 5 ml of an enzyme solution [which is a solution of trypsin (1.25 mg) (manufactured by Difco) and collagenase (0.25 mg) (manufactured by Sigma) in phosphate buffer (1 ml)] was added. The mixture was stirred for 15 minutes with a stirrer while maintaining at 37° C. After 2.5 ml of the enzyme solution was replenished, the mixture was stirred for further 15 minutes, and this procedure was repeated twice. Subsequently, Medium 199 (manufactured by Gibco) containing 10% fetal cow serum (manufactured Biowicker, Inc.) was added to the mixture in a half volume of the enzyme solution to terminate the enzymatic reaction. After filtering through a cell strainer (manufactured by Falcon), the mixture was centrifuged at 400×g for 5 minutes to collect the cells.
# The cells were then recovered, filtered through a cell strainer and centrifuged at 400×g for 5 minutes to collect primary cardiomyocytes derived from rat neonates.
# Next, the primary cardiomyocytes derived from rat neonates (corresponding 10 neonates) were suspended in 2 ml of a hypotonic solution [solution obtained by dissolving NH4Cl (8.29 g), KHCO3 (1.0 g) and EDTA/2Na (ethylenediaminetetraacetic acid disodium; manufactured by Dojin Chemical Laboratory) (37 mg) in water (1 L)]. The suspension was allowed to stand for 3 minutes to disrupt erythrocytes. To the suspension 10 ml of Medium 199 containing 10% fetal cow serum was added, and the mixture was centrifuged at 400×g for 5 minutes to collect the primary cardiomyocytes derived from rat neonates. […] An aliquot of the cardiomyocytes suspension obtained was taken out and 0.3% trypan blue was added thereto. The mixture was gently stirred and the count of cardiomyocytes was counted with a hemocytometer.
# Incubation was continued for further 4 days to induce cell death. […]
# The mean value (±SD) in the minimum effective concentration of Compound 1 required for inhibiting the cell death was 0.015±0.011 μM. The concentration of Compound 1 required for increasing the mean cell count by 30% when compared to the cell count without the addition of Compound 1 was determined to be the minimum effective concentration. […]
# [4] = biological target: T1, rat MIF (Rattus norvegicus, UniProt P30904); test: Binding to immobilized rat MIF by surface plasmon resonance (BIACORE 3000); settings: 10 μM in PBS, rat MIF immobilized on sensor chip CM5
# T1 construct: the region encoding MIF was amplified from the complementary DNA (cDNA) library of rat and mouse brains; made in house; host or cells: Escherichia coli BL21 (DE3)
# Procedure: The binding of rat MIF obtained in REFERENCE EXAMPLE 6 to Compound 1 obtained in REFERENCE EXAMPLE 1 was analyzed using BIACORE 3000 (manufactured by Biacore).
# Rat MIF was immobilized on a sensor chip CM5 (manufactured by Biacore). Then, phosphate buffered saline (PBS) containing 10 μM of Compound 1 was flown over the sensor chip and changes in the surface plasmon resonance signal were monitored as the binding of the compound to rat MIF.
# Rat MIF obtained in REFERENCE EXAMPLE 6 was immobilized on a sensor chip CM5 (manufactured by Biacore Co., Ltd.). Thereafter, phosphate buffered saline (PBS) containing 10 μM of 3-[2-(4-oxo-4H-1,3-benzothiazin-2-yl)-4-pyridyl]propionic acid (the compound of EXAMPLE 308 described in WO 03/020719) was flown over the sensor chip and changes in surface plasmon resonance signal were monitored as the binding of the compound to rat MIF.
smiles,measurement,setting,value
"O=c1nc(-c2ccccn2)sc2ccccc12 [Compound 1, 2-(2-Pyridyl)-4H-1,3-benzothiazin-4-one]",inhibition of cell death induced by serum depletion,[1],exhibits the activity of inhibiting vascular smooth muscle cell death induced by serum depletion
same,inhibition of myocardial cell death induced by doxorubicin,[2],exhibits the activity of inhibiting myocardial cell death induced by doxorubicin
same,minimum effective concentration required for inhibiting the cell death,"[3]; concentration increasing mean cell count by 30% vs no compound, serum-free 4 days, mean ±SD, 3 runs",0.015 ± 0.011 µM
same,myocardial cell death inhibitory activity,"[3]; serum depletion, 4 days, WST-8 viable cell count",exhibit the activity of inhibiting myocardial cell death
same,binding of the compound to rat MIF (changes in surface plasmon resonance signal),[4],binds to MIF
